From article PMC3156385 (Chemical research in toxicology, 2011)
Like-named read-outs stand apart in the source and are kept apart here.

What was measured:
[1] = target: T1, P450 1B1 (Homo sapiens, UniProt Q16678); test: Inhibition of P450 1B1-dependent EROD activity; type: biochemical
T1 sequence (Q16678 1-543): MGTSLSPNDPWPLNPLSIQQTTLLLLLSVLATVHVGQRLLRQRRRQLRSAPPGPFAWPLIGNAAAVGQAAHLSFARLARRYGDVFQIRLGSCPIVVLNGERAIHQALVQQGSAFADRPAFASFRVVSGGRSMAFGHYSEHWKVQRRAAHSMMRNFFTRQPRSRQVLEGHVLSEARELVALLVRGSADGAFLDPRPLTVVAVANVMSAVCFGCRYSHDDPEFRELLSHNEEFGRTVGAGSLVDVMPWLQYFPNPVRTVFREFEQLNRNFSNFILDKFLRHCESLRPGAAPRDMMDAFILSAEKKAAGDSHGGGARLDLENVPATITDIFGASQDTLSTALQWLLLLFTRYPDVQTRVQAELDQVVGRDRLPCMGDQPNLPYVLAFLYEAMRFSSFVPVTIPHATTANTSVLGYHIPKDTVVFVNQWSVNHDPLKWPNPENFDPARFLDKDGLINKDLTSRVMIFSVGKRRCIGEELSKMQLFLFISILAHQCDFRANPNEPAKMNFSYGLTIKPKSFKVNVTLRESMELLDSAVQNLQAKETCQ

[2] = target: T2, P450 2A6 (Homo sapiens, UniProt P11509); type: biochemical
T2 sequence (P11509 1-494): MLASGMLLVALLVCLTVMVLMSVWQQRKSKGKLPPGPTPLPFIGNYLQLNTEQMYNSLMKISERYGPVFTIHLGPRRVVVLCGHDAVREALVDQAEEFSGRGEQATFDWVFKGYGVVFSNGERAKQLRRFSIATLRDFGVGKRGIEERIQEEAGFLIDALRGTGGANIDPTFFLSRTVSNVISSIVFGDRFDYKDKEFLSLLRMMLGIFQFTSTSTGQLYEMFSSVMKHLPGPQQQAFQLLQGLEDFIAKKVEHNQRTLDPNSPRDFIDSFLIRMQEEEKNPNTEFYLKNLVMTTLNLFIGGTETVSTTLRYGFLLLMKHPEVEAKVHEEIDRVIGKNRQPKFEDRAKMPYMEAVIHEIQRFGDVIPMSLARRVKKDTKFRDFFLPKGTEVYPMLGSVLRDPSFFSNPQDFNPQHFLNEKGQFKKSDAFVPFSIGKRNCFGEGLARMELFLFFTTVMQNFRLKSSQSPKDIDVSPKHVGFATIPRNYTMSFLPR

[3] = target: T3, P450 1A1 (Homo sapiens, UniProt P04798); test: Spectral binding titration with purified recombinant P450 1A1; details: for ΔAmax/Ks / ΔAmax: Reverse Type I binding, 1 µM P450; for ΔAmax: means ± SE
T3 sequence (P04798 1-512): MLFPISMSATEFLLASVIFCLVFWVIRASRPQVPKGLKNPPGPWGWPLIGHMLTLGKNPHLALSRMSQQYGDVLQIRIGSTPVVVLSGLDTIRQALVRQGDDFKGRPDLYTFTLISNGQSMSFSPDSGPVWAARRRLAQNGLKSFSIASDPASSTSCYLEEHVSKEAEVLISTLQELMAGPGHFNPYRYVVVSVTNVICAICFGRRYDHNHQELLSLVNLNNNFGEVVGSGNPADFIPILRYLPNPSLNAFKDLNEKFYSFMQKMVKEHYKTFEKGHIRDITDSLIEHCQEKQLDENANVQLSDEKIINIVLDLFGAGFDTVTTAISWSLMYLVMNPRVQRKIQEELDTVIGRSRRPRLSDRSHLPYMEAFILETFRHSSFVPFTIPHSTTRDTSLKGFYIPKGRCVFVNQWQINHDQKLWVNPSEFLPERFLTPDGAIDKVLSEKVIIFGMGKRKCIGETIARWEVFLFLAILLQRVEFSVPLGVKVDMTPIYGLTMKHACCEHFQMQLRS

[4] = target: T4, P450 1A2 (Homo sapiens, UniProt P05177); test: Spectral binding titration with purified recombinant P450 1A2; details: for ΔAmax/Ks / ΔAmax: Reverse Type I binding, 1 µM P450; for ΔAmax: means ± SE
T4 sequence (P05177 1-516): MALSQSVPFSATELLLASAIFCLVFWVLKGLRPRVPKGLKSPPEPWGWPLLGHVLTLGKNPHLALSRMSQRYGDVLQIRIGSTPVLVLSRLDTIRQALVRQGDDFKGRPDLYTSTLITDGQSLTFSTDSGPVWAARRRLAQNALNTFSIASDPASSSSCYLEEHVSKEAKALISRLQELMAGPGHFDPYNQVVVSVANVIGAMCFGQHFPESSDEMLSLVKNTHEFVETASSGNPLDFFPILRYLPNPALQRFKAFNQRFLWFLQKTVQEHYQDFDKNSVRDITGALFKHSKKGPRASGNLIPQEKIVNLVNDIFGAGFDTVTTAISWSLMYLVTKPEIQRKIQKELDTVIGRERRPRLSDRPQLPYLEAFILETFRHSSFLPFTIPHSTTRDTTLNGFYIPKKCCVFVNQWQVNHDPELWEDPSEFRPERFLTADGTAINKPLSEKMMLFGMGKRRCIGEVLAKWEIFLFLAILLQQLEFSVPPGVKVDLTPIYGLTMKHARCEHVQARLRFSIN

[5] = target: T1, P450 1B1; test: Spectral binding titration with purified recombinant P450 1B1; details: for ΔAmax/Ks / ΔAmax: Reverse Type I binding, 1 µM P450; for ΔAmax: means ± SE
[6] = target: T2, P450 2A6; test: Spectral binding titration with purified recombinant P450 2A6; details: for ΔAmax/Ks / ΔAmax: Type I binding, 1 µM P450; for ΔAmax: means ± SE

With `N#C[Se]Cc1ccccc1` [BSC, benzyl selenocyanate] the IC50 [1] was 0.27 ± 0.031 µM, the “effect of preincubation on inhibition potency of coumarin 7-hydroxylation” value [2] was “did not change the inhibition potencies” and the Kd [3] was 23 ± 4.1 µM. For the same molecule, the ΔAmax/Ks [3] was 0.61 × 10^−3, the ΔAmax [3] was 14 ± 1.0 × 10^−3 and the “type of binding spectra” value ([3]; difference spectra) was “Reverse Type I”. For the same molecule, the Kd [4] was 11 ± 2.3 µM, the ΔAmax/Ks [4] was 0.88 × 10^−3 and the ΔAmax [4] was 9.5 ± 0.57 × 10^−3. The Kd [5] was 5.3 ± 0.96 µM, the ΔAmax/Ks [5] was 3.60 × 10^−3 and the ΔAmax [5] was 19 ± 0.11 × 10^−3. For the same molecule, the Kd [6] was 2 ± 0.14 µM, the ΔAmax/Ks [6] was 32.00 × 10^−3 and the ΔAmax [6] was 66 ± 0.93 × 10^−3. For the same molecule, the “type of binding spectra” value ([6]; difference spectra) was “Type I”.

`N#C[Se]Cc1cccc(C[Se]C#N)c1` [m-XSC, 1,3-phenylenebis(methylene)selenocyanate] was tested, and the “metabolism-dependent inhibition of P450 1B1 (EROD)” value ([1]; m-XSC 0.033, 0.083, 0.33 µM, preincubation 2 and 4 min with NADPH) was “no metabolism-dependent inhibition”, the “effect of preincubation on inhibition potency of coumarin 7-hydroxylation” value ([2]; preincubation 15 min with NADPH vs without) was “did not change the inhibition potencies” and the “coumarin 7-hydroxylation, % of control” value ([2]; with preincubation 15 min with NADPH, 1.0 µM coumarin, BSC 4.3 µM, m-XSC 0.68 µM) was 48 % of control. For the same molecule, the “coumarin 7-hydroxylation, % of control” value ([2]; without preincubation, 1.0 µM coumarin, BSC 4.3 µM, m-XSC 0.68 µM) was 48 % of control, the “coumarin 7-hydroxylation” value ([2]; without preincubation, 1.0 µM coumarin, BSC 4.3 µM, m-XSC 0.68 µM, control 3.26) was 1.56 nmol/min/nmol P450 and the Kd [3] was 30 ± 4.5 µM. For the same molecule, the ΔAmax/Ks [3] was 0.60 × 10^−3, the ΔAmax [3] was 18 ± 1.2 × 10^−3 and the Kd [4] was 13 ± 1.9 µM. The ΔAmax/Ks [4] was 0.46 × 10^−3, the ΔAmax [4] was 5.8 ± 0.25 × 10^−3 and the Kd [5] was 5.7 ± 1 µM. The ΔAmax/Ks [5] was 3.70 × 10^−3, the ΔAmax [5] was 21 ± 1.0 × 10^−3 and the “type of binding spectra” value ([5]; difference spectra) was “Reverse Type I”. For the same molecule, the Kd [6] was 5.7 ± 0.52 µM, the ΔAmax/Ks [6] was 6.50 × 10^−3 and the ΔAmax [6] was 37 ± 0.88 × 10^−3.
